Entries after “also recorded” stand apart in the source; their conditions may differ.
Experiments:
[1] = system: epidermal cells; conditions: 5 mg/g of CMC, about 140 μg per array; 72 hours of exposure
Description: Cytoxan® was integrated at a concentration of 5 mg/g of CMC, enabling delivery of approximately about 140 μg per array. […] Living human skin organ cultures were used to assess the cytotoxicity of Cytoxan®. Cytoxan® was delivered by application of arrays to skin explants as we previously described. Arrays and residual material were removed 5 minutes after application, and after 72 hours of exposure, culture living skin explants were cryo-sectioned and fixed.

[2] = MNA DNBS dose response, ear thickness increase and histology; assay type: in vivo, mouse; conditions: MNAs with 25 ng, 50 ng and 100 ng tested; ear thickness increase
Description: These figures illustrate an exemplary MNA DNBS dose response, by indicating an optimal lowest dose of hapten contained in MNAs capable of inducing effective skin acute and chronic inflammation. In particular, FIG. 51A charts MNA DNBS doses as a percentage of ear thickness increase. FIG. 51B provides histological detail of treated ear skin following the application of MNAs with the three different doses of DNBS (25 ng, 50 ng, and 100 ng).

[3] = Dye release from MNAs inserted into 4% agar test-gels; assay type: physicochemical; conditions: dually loaded MNA
Text: To illustrate the delivery of multiple drugs with distinct release kinetics, MNAs were fabricated to delivery two distinct cargos by distinct release kinetics. Specifically, MNAs were fabricated to release the marker Toluidine Blue in an initial burst, followed by a sustained release of the marker FD&C Red40. Dyes were directly loaded in the MNA scaffold matrix (in this case CMC) of the needle tips and in some cases a second dye, encapsulated in a sustained release polymer was layer directly below. MNAs were inserted into 4% agar test-gels and removed after 1 min.
Images of dye diffusion were collected at the indicated time points (FIG. 39A). As shown in FIGS. 39A-C, FD&C Red40 (FIG. 39A) and toluidine blue (FIG. 39B), tracer dyes were tip-loaded in MNAs for immediate release. Alternatively, MNAs were fabricated with toluidine blue tip-loaded and FD&C Red40 encapsulated in a sustained release polymer (FIG. 39C). MNAs were inserted into 4% agar test-gel and removed after 1 min. Images were collected at the indicated time-points. Tip-loaded cargos were rapidly released from the MNAs and dispersed progressively in the gel (FIG. 39A and B). […] Upper panels depict images of microneedles from MNAs before application. The middle images are the imprints of the arrays 1 minute after application and MNA removal. Lower panels depicted the indicated representative magnified images at the indicated time points.

[4] = system: B16 melanoma; test: Treatment of established B16 skin tumors with MNAs; conditions: MNA once weekly for three weeks; for survival: untreated 100% mortality
Description: B16 skin tumors were established in normal mice by injection. Visible established cutaneous tumors were treated once weekly for three weeks with MNAs containing either doxorubicin alone, Poly(I:C) alone, or doxorubicin and Poly(I:C) incorporated into the same MNA. The doxorubicin dose chosen corresponds to an MNA dose that induces apoptosis in human skin without causing necrosis. Tumor growth and survival were measured regularly for the duration of the study.

[5] = biological target: T1, NK1R (Mus musculus, UniProt P30548); test: DTH reaction in mice sensitized with DNCB with NK1R agonist SarSP; assay type: in vivo; conditions: C57BL/6 (B6) mice sensitized with DNCB in the presence of SarSP (10^−9 M)
T1 construct: from tissue
Text: The effect of different treatments in B6-WT mice was compared with n=6/experimental group. […] The inflammatory infiltrate was composed of leukocytes including polimorphonuclear neutrophils (PMN) and eosinophils as shown in the inset of FIG. 45A.
Means±1SD of 6 mice/experimental group are illustrated, with three independent experiments performed.

[6] = biological target: T1, NK1R; test: Histology of skin and skin draining lymph nodes of B6-WT mice sensitized with DNCB with or without SarSP; assay type: in vivo
Text: (A & C: H and E, 200×; Insets, 1,000×; B & D: TB, 200×; Insets 1,000×; NT refers to non-treated mice.)
The effect of different treatments in B6-WT mice was compared with n=6/experimental group.

[7] = biological target: T2, NK1R (Homo sapiens, UniProt P25103); test: Human mixed leukocyte cultures (MLC), skin DC as stimulators of allogeneic naive CD4 T cells, with SarSP; assay type: cell-based; conditions: SarSP added to MLC
T2 construct: adding SarSP to human mixed leukocyte cultures (MLC) using skin DC as stimulators of allogeneic naïve CD4 T cells; endogenous in cells; host or cells: human skin dendritic cells from skin explants, co-cultured with allogeneic T cells (MLC)
Text: FIGS. 42A and 42B show human skin DCs express functional NK1R. […] Conventional rigid MNA with pyramid geometry can suffer from limited skin penetration, and poor and unreliable cargo delivery capacity compared to the novel microneedle structures disclosed herein. For example, in some embodiments, the delivery systems disclosed herein integrate biologics into dissolvable carboxymethyl-cellulose (CMC) microneedles with obelisk geometries.

[8] = system: OVA-specific CTL activity; test: OVA-specific CTL activity in vivo after CMC-microneedle array immunization; conditions: mice immunized on ears with pyramidal arrays, boosted one week later

T1 sequence (P30548 whole entry): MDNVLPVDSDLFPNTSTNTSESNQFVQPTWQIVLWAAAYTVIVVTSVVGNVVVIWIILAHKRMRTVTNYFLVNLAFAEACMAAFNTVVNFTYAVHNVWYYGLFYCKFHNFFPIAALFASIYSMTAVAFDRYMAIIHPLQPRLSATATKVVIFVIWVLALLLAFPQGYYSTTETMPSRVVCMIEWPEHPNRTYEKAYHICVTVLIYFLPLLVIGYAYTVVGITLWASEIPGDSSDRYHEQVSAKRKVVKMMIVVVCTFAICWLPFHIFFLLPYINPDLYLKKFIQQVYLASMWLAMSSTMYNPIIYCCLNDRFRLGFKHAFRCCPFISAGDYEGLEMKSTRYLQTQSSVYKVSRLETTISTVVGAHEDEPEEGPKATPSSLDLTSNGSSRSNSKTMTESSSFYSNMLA
T2 sequence (P25103 whole entry): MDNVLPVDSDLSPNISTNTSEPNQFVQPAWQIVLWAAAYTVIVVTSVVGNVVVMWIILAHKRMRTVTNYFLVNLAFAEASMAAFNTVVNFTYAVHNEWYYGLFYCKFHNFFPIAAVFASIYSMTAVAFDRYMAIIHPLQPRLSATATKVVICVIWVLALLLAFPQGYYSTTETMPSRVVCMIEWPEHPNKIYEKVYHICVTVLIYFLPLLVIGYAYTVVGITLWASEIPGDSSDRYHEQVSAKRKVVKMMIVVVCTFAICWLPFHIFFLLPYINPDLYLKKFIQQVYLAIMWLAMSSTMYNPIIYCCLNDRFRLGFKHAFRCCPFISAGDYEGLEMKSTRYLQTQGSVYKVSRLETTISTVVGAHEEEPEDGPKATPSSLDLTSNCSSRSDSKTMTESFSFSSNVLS

O=P1(N(CCCl)CCCl)NCCCO1 (stereo not shown) [Cytoxan®, cyclophosphamide]
apoptosis of epidermal cells (TUNEL) [1]: extensive apoptosis of epidermal cells

O=[N+]([O-])c1ccc(S(=O)(=O)O)c([N+](=O)[O-])c1 [DNBS, 2,4-Dinitrobenzenesulfonic acid]
optimal, lowest dose inducing skin acute and chronic inflammation [2]: 50 ng

COc1cc(S(=O)(=O)[O-])c(C)cc1N=Nc1c(O)ccc2cc(S(=O)(=O)[O-])ccc12.[Na+].[Na+] [FD&C Red40]
release of encapsulated dye ([3]; dye encapsulated in sustained release polymer): released slowly over an extended time period
period of release from depot ([3]; dye in underlying layer of sustained release polymer): 10 days

Cc1cc2nc3ccc(N(C)C)cc3[s+]c2cc1N.[Cl-] [Toluidine Blue]
release of tip-loaded dye ([3]; dye in CMC in the needle tip): released in an initial burst

COc1cccc2c1C(=O)c1c(O)c3c(c(O)c1C2=O)C[C@@](O)(C(=O)CO)C[C@@H]3O[C@H]1C[C@H](N)[C@H](O)[C@H](C)O1 [doxorubicin]
tumor growth [4]: slowed tumor growth
survival [4]: 30%

Poly(I:C)
tumor growth [4]: slowed tumor growth
survival [4]: 50%

Sar^9 Met(O2)^11—SP [SarSP]
DTH reactions [5]: significantly increased DTH reactions
MC activation and degranulation in skin ([6]; B6-WT mice): triggered MC activation and degranulation
inflammatory response in skin ([6]; agent administered alone, B6-WT mice): did not induce inflammatory response
inflammatory infiltrate in skin draining lymph node ([6]; co-administration with DNCB): significantly increases the inflammatory infiltrate
inflammatory response in skin ([6]; co-administration with DNCB, B6-WT mice): significantly increased the number of inflammatory cells; also recorded: dramatically increased the magnitude of the inflammatory response and tissue damage
number of MC in draining lymph nodes ([6]; mouse, in vivo): induced an increased number of MC
IFN-γ secretion [7]: significantly augmented
Tcell proliferation [7]: significantly augmented

particulate OVA: particulate ovalbumin, model antigen, in CMC microneedle arrays
OVA-specific CTL activity in vivo [8]: Significant OVA-specific CTL activity

soluble OVA: soluble ovalbumin, model antigen, in CMC microneedle arrays
OVA-specific CTL activity in vivo [8]: Significant OVA-specific CTL activity

Source: US11744889B2, “Skin microenvironment targeted delivery for promoting immune and other responses” (University of Pittsburgh—Of the Commonwealth System of …, priority 2016, dated 2023)
